target: S1P1 (Homo sapiens (Human), UniProt P21453); experiment: 35S-GTPγS binding assay, S1P1 membranes; type: biochemical; conditions: membranes from CHO cells expressing S1P1; read-out: S1P1 GTPyS EC50
Method: Membranes were prepared from CHO cells expressing S1P1 or S1P3 for use in ligand and […] binding studies. Cells were suspended in 50 mM TRIS, pH 7.4, 2 mM EDTA, 250 mM Sucrose (buffer A) and 1× Complete protease inhibitor cocktail (Roche), and disrupted at 4° C. by nitrogen decompression using a cell disruption bomb (Parr Instrument). Following centrifugation at 1000 RPM for 10 min at 4° C., the supernatant was suspended in buffer A and centrifuged again at 19000 RPM for 60 min at 4° C. The pellet was then suspended in 10 mM HEPES, pH 7.4, 1 mM EDTA, 250 mM Sucrose (Buffer B), and 1× Complete EDTA-free protease inhibitor cocktail and homogenized using a potter. Membranes were flash frozen in liquid nitrogen and stored at −80° C. [33P]sphingosine 1-phosphate (3000 Ci/mmol; American Radiolabeled Chemicals, Inc.) was added to test compounds in DMSO. […] Binding was performed for 60 min at room temperature on a shaker and bound radioactivity was measured on a PerkinElmer 1450 MicroBeta counter. Specific binding was calculated by subtracting remaining radioactivity in the presence of 1000-fold excess of unlabeled S1P. Binding data were analyzed using the GraphPad Prism program.
The assay was initiated with the addition of 20 μl of 1.5 nM [35S]-GTPγS (1100 Ci/mmol; GE Healthcare) in assay buffer. After 60 min incubation at 30° C. on a shaker, plates were centrifuged for 10 min at 2000 RPM. Supernatant was discarded and membrane bound radioactivity was measured on a PerkinElmer 1450 MicroBeta counter. Triplicate samples were averaged and expressed as % response relative to SIP activation in absence of compound (n=2).

S1P1, sequence (P21453 whole entry, species assumed): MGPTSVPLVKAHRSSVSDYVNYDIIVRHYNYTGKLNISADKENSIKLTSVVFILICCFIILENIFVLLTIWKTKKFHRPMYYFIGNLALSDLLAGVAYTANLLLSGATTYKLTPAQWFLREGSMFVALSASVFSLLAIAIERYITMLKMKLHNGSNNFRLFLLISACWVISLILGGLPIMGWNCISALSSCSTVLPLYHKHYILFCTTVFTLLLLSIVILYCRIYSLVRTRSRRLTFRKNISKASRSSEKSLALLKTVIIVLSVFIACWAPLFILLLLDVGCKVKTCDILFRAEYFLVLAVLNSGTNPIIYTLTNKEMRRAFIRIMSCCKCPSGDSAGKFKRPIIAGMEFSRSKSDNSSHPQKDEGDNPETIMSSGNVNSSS

Row | EC50 | Structure (SMILES)
1 | 68 nM | CCCN(c1cc(C(=O)Nc2ccc3[nH]ncc3c2)ncn1)C(C)C [Example 1-67]
2 | 374 nM | COc1cc(NS(C)(=O)=O)ccc1NC(=O)c1cc(NC2CCCCC2)ncn1 [Example 1-27]
3 | 226 nM | O=C(O)CCS(=O)(=O)Cc1ccc(NC(=O)c2cc(N(CC3CC3)C3CCCCC3)ncn2)cc1 [Example 1-133]
4 | 3260 nM | CCCN(CC1CC1)c1cc(C(=O)Nc2ccc3c(cnn3CC(=O)O)c2)ncn1 [Example 1-116]
5 | 724 nM | CC(C)(C)OC(=O)CNCc1ccc(NC(=O)c2cc(N(CC3CC3)C3CCCCC3)ncn2)cc1 [Example 1-73]
6 | 443 nM | CCCN(CC1CC1)c1cc(C(=O)Nc2ccc(CN3CCC(C(=O)O)CC3)cc2C)ncn1 [Example 1-138]
7 | 101 nM | CCCN(CC1CC1)c1cc(C(=O)Nc2ccc(CN)cc2)ncn1 [Example 1-88]
8 | 1010 nM | CCCN(CC1CC1)c1cc(C(=O)Nc2ccc3nn(CC(=O)O)cc3c2)ncn1 [Example 1-121]
9 | 706 nM | CCCN(CC1CC1)c1cc(C(=O)Nc2ccc(CN3CCCC3=O)cc2C)ncn1 [Example 1-98]
10 | 4360 nM | O=C(Nc1ccc(C(=O)O)c(F)c1)c1cc(N(CC2CC2)C2CCCCC2)ncn1 [Example 1-122]
11 | 567 nM | CCCN(CC1CC1)c1cc(C(=O)Nc2ccc(CNC)cc2C)ncn1 [Example 1-111]
12 | 2760 nM | CCCN(CC1CC1)c1cc(C(=O)Nc2ccc3[nH]cnc3c2)ncn1 [Example 1-125]
13 | 465 nM | CCCN(CC1CC1)c1cc(C(=O)Nc2ccc(CN3CCC(O)C3)cc2C)ncn1 (centres unmarked) [Example 1-142]
14 | 73 nM | NC(=O)c1ccc(NC(=O)c2cc(N(CC3CC3)C3CCCCC3)ncn2)cc1 [Example 1-50]
15 | 481 nM | CCCN(CC1CC1)c1cc(C(=O)Nc2cccc(Cn3ccnc3)c2)ncn1 [Example 1-153]
16 | 2000 nM | CCNS(=O)(=O)c1ccc(NC(=O)c2cc(N(C)C3CCCCC3)ncn2)cc1 [Example 1-31]
17 | 660 nM | Cc1cc(O)ccc1NC(=O)c1cc(N(C)C2CCCCC2)ncn1 [Example 1-21]
18 | 1110 nM | COCCN(CCOC)c1cc(C(=O)Nc2ccc3[nH]ncc3c2)ncn1 [Example 1-70]
19 | 32 nM | COCCN(c1cc(C(=O)Nc2ccc3[nH]ncc3c2)ncn1)C1CCCCC1 [Example 1-66]
20 | 558 nM | CCOCN(CCOC)c1cc(C(=O)Nc2ccc(S(N)(=O)=O)cc2C)ncn1 [Example 1-59]
21 | 268 nM | CCCN(CC1CC1)c1cc(C(=O)Nc2ccc(CC3COC(=O)N3)cc2)ncn1 (centres unmarked) [Example 1-150]
22 | 60 nM | O=C(Nc1ccc(S(=O)(=O)NCC(O)CO)cc1)c1cc(N(CC2CC2)C2CCCCC2)ncn1 (centres unmarked) [Example 1-51]
23 | 1160 nM | COC(=O)C(C)(C)NCc1ccc(NC(=O)c2cc(N(CC3CC3)C3CCCCC3)ncn2)cc1 [Example 1-83]
24 | 1320 nM | CCCN(CC1CC1)c1cc(C(=O)Nc2ccc3nn(CC(=O)N(C)C)cc3c2)ncn1 [Example 1-114]
25 | 107 nM | O=C(Nc1ccncc1)c1cc(N(CC2CC2)C2CCCCC2)ncn1 [Example 1-49]

Row | EC50 | Structure (SMILES)
26 | 1540 nM | CCCN(CC1CC1)c1cc(C(=O)Nc2cccc(-n3ccnc3C)c2)ncn1 [Example 1-144]
27 | 1410 nM | CCCN(CC1CC1)c1cc(C(=O)Nc2ccc(CN3CCC(O)CC3)cc2C)ncn1 [Example 1-140]
28 | 1680 nM | Cc1cc(O)ccc1NC(=O)c1cc(NC2CCCCC2C)ncn1 (centres unmarked) [Example 1-24]
29 | 1470 nM | CCCN(CC1CC1)c1cc(C(=O)Nc2ccc(CN3CCOCC3)cc2C)ncn1 [Example 1-93]
30 | 596 nM | CCCN(CC1CC1)c1cc(C(=O)Nc2ccc3nn(CC(=O)OCC)cc3c2)ncn1 [Example 1-120]
31 | 13300 nM | Cc1cc(S(N)(=O)=O)ccc1NC(=O)c1cc(OC2CCCCC2)ncn1 [Example 1-65]
32 | 1230 nM | CCCN(CC1CC1)c1cc(C(=O)Nc2ccc(S(=O)(=O)N(C)CC(=O)O)cc2C)ncn1 [Example 1-102]
33 | 1710 nM | CCCN(CC1CC1)c1cc(C(=O)Nc2ccc3[nH]nc(CCC(=O)O)c3c2)ncn1 [Example 1-129]
34 | 236 nM | CCCN(CC1CC1)c1cc(C(=O)Nc2ccc3c(c2)CNCC3)ncn1 [Example 1-92]
35 | 816 nM | CCCN(CC1CC1)c1cc(C(=O)Nc2ccc(CN(C)CC(=O)O)cc2C)ncn1 [Example 1-128]
36 | 55 nM | CCCN(CC1CC1)c1cc(C(=O)Nc2ccc(Cn3cncn3)cc2)ncn1 [Example 1-145]
37 | 2340 nM | CCCN(CC1CC1)c1cc(C(=O)Nc2ccc(S(C)(=O)=O)cc2)ncn1 [Example 1-110]
38 | 970 nM | Cc1cc(O)ccc1NC(=O)c1cc(NC2CCCCCC2)ncn1 [Example 1-23]
39 | 3120 nM | CCCN(CC1CC1)c1cc(C(=O)Nc2ccc(CS(=O)(=O)CCC(=O)O)cc2)ncn1 [Example 1-135]
40 | 821 nM | CCCN(CC1CC1)c1cc(C(=O)Nc2ccc(CNCCOC)cc2C)ncn1 [Example 1-95]
41 | 1350 nM | CN(c1cc(C(=O)Nc2ccnc3ccccc23)ncn1)C1CCCCC1 [Example 1-43]
42 | 537 nM | CCOC(=O)CCS(=O)(=O)Cc1ccc(NC(=O)c2cc(N(CC3CC3)C3CCCCC3)ncn2)cc1 [Example 1-130]
43 | 391 nM | CCCN(CC1CC1)c1cc(C(=O)Nc2ccc(CN(C)CCO)cc2C)ncn1 [Example 1-96]
44 | 604 nM | CCCN(CC1CC1)c1cc(C(=O)Nc2ccc(N3CCOCC3)c(F)c2)ncn1 [Example 1-151]
45 | 202 nM | CCCN(CC1CC1)c1cc(C(=O)Nc2ccc(S(=O)(=O)NCCOC)cc2C)ncn1 [Example 1-106]
46 | 2480 nM | CCCN(CC1CC1)c1cc(C(=O)Nc2ccc(CN3CCC[C@@H]3COC)cc2C)ncn1 [Example 1-139]
47 | 6350 nM | CCCN(CC1CC1)c1cc(C(=O)Nc2ccc3nn(CC(N)=O)cc3c2)ncn1 [Example 1-118]
48 | 216 nM | COCCN(c1cc(C(=O)Nc2ccc3[nH]ncc3c2)ncn1)C(C)C [Example 1-87]
49 | 1050 nM | CCCN(CC1CC1)c1cc(C(=O)Nc2cccc(Cn3cccn3)c2)ncn1 [Example 1-148]
50 | 497 nM | CCCN(CCC)c1cc(C(=O)Nc2ccc(CN)cc2)ncn1 [Example 1-72]

Row | EC50 | Structure (SMILES)
51 | 145 nM | CCCN(CC1CC1)c1cc(C(=O)Nc2ccc3c(c2)CCNC3)ncn1 [Example 1-91]
52 | 2280 nM | COCCNS(=O)(=O)c1ccc(NC(=O)c2cc(N(C)C3CCCCC3)ncn2)cc1 [Example 1-42]
53 | 287 nM | CCC(NCc1ccc(NC(=O)c2cc(N(CC3CC3)C3CCCCC3)ncn2)cc1)C(=O)O (centres unmarked) [Example 1-80]
54 | 39 nM | NCc1ccc(NC(=O)c2cc(N(CC3CC3)C3CCCCC3)ncn2)cc1 [Example 1-48]
55 | 79 nM | CCCN(CC1CC1)c1cc(C(=O)Nc2cccc(-n3cncn3)c2)ncn1 [Example 1-143]
56 | 1580 nM | O=C(Nc1ccc(O)c(F)c1)c1cc(NC2CCCCC2)ncn1 [Example 1-14]
57 | 517 nM | CCCN(CC1CC1)c1cc(C(=O)Nc2ccc(CNC(C)C(=O)O)cc2C)ncn1 (centres unmarked) [Example 1-104]
58 | 674 nM | CN(c1cc(C(=O)Nc2ccc(S(N)(=O)=O)cc2)ncn1)C1CCCCC1 [Example 1-30]
59 | 279 nM | CCCN(CC1CC1)c1cc(C(=O)Nc2ccc(-n3cncn3)cc2)ncn1 [Example 1-146]
60 | 238 nM | CCCN(CC1CC1)c1cc(C(=O)Nc2ccc(S(=O)(=O)NCCCC(=O)O)cc2C)ncn1 [Example 1-108]
61 | 1070 nM | CCCN(CC1CC1)c1cc(C(=O)Nc2ccc3c(cnn3CC(N)=O)c2)ncn1 [Example 1-117]
62 | 2840 nM | CCCN(CC1CC1)c1cc(C(=O)Nc2ccc3c(cnn3CC(=O)N(C)C)c2)ncn1 [Example 1-115]
63 | 1680 nM | CCOC(=O)CCCS(=O)(=O)c1ccc(NC(=O)c2cc(N(CC3CC3)C3CCCCC3)ncn2)cc1 [Example 1-131]
64 | 1500 nM | CCCN(CC1CC1)c1cc(C(=O)Nc2ccc(S(=O)(=O)CCCC(=O)O)cc2)ncn1 [Example 1-124]
65 | 610 nM | Cc1cc(O)ccc1NC(=O)c1cc(N(C)C2CCC(C)CC2)ncn1 (centres unmarked) [Example 1-32]
66 | 907 nM | CN(c1cc(C(=O)Nc2ccc(S(=O)(=O)NCCO)cc2)ncn1)C1CCCCC1 [Example 1-37]
67 | 2160 nM | CCC(NCc1ccc(NC(=O)c2cc(N(CC3CC3)C3CCCCC3)ncn2)cc1)C(=O)OC (centres unmarked) [Example 1-74]
68 | 346 nM | O=C(Nc1ccc(Cn2cncn2)cc1)c1cc(N(CC2CC2)C2CCCCC2)ncn1 [Example 1-137]
69 | 2040 nM | Cn1cnnc1-c1ccc(NC(=O)c2cc(N(CC3CC3)C3CCCCC3)ncn2)cc1 [Example 1-136]
70 | 5050 nM | CCCN(CC1CC1)c1cc(C(=O)Nc2ccc(CS(=O)(=O)CCC(=O)OCC)cc2)ncn1 [Example 1-119]
71 | 1120 nM | CCCN(CC1CC1)c1cc(C(=O)Nc2cccc(Cn3cncn3)c2)ncn1 [Example 1-152]
72 | 2690 nM | CN(CC(=O)OC(C)(C)C)Cc1ccc(NC(=O)c2cc(N(CC3CC3)C3CCCCC3)ncn2)cc1 [Example 1-75]
73 | 127 nM | Cc1cc(S(=O)(=O)N(C)CC(=O)O)ccc1NC(=O)c1cc(N(CC2CC2)C2CCCCC2)ncn1 [Example 1-101]
74 | 1490 nM | COCCN(CC1CC1)c1cc(C(=O)Nc2ccc(CN)cc2)ncn1 [Example 1-89]

Reference: patent publication US9150519B2, “6-amino-pyrimidine-4-carboxamide derivatives and related compounds which bind to the sphingosine 1-phosphate (S1P) receptor for the treatment of multiple sclerosis” (MERCK SERONO SA, priority 2007, dated 2015)
